# Assay results taken from ChEMBL document CHEMBL3046784, “Exploring QSAR of antiamoebic agents of isolated natural products by MLR, ANN, and RTO” (Med Chem Res, 2012).
# Tested on: Entamoeba histolytica
# Assay: Antiamoebic activity against Entamoeba histolytica
# Type: functional, organism-based
# Conditions: Entamoeba histolytica; read-out: IC50
row,Compound,IC50 [µg/mL]
1,O=C(O)C1=CO[C@H](O[C@@H]2O[C@H](CO)[C@@H](O)[C@H](O)[C@H]2O)[C@H]2[C@@H]1C=C[C@@]21C=C(C(O)c2ccc(O)cc2)C(=O)O1 (stereo not given in full) [GAERTNERIC ACID],7.1
2,COC(=O)C1=CO[C@H](O[C@@H]2O[C@H](CO)[C@@H](O)[C@H](O)[C@H]2O)[C@H]2[C@@H]1C=C[C@@]21C=C(C(O)c2ccc(O)cc2)C(=O)O1 (stereo not given in full) [GAERTNEROSIDE],4.3
3,O=c1c(O)c(-c2ccccc2)oc2cc(O)cc(O)c12 [GALANGIN],159
4,COC(=O)c1cc(O)c(O)c(O)c1 [GALLIC ACID METHYL ESTER],22.6
5,O=c1cc(-c2ccc(O)c(O)c2)oc2cc(O[C@@H]3O[C@H](CO)[C@@H](O)[C@H](O)[C@H]3O)cc(O)c12 [GALUTEOLIN],44.7
6,Oc1ccc([C@]23Oc4cc(O)cc(O)c4[C@H](c4c(cc(O)c5c4O[C@H](c4cc(O)c(O)c(O)c4)[C@@H](O)C5)O2)[C@H]3O)cc1 [GERANIN C],52
7,Oc1ccc([C@H]2Oc3c(c(O)cc4c3[C@H]3c5c(O)cc6c(c5O[C@@](c5ccc(O)cc5)(O4)[C@@H]3O)[C@H]3c4c(O)cc(O)cc4O[C@@](c4ccc(O)cc4)(O6)[C@H]3O)C[C@@H]2O)cc1 [GERANIN D],28.6
8,CC[C@](C)(O)C(=O)O[C@H]1C(=O)O[C@@H]2C[C@H]3C(C)=CC(=O)[C@@H](O)[C@]3(C)[C@H]3[C@@]4(O)OC[C@]32[C@@H]1[C@@H](C)[C@H]4O [GLAUCARUBINONE],0.168
9,CC[C@](C)(O)C(=O)O[C@H]1C(=O)O[C@@H]2C[C@H]3C(C)=C[C@H](O)[C@@H](O)[C@]3(C)[C@H]3[C@]4(O)OC[C@]32[C@@H]1[C@@H](C)[C@H]4O [GLAUCARUBIN],1.57
10,CC1=CC(=O)[C@@H](O)[C@]2(C)[C@H]3[C@]4(O)OC[C@]35[C@H]([C@@H](C)[C@H]4O)[C@@H](O)C(=O)O[C@@H]5C[C@@H]12 [GLAUCARUBOLONE],0.12
11,CC1=C[C@H](O)[C@@H](O)[C@]2(C)[C@H]3[C@@]4(O)OC[C@]35[C@H]([C@@H](C)[C@H]4O)[C@@H](O)C(=O)O[C@@H]5C[C@@H]12 [GLAUCARUBOL],2
12,Cc1cc2c(C(C)C)c(O)c(O)c(C=O)c2c(O)c1-c1c(C)cc2c(C(C)C)c(O)c(O)c(C=O)c2c1O [GOSSYPOL],0.00777
13,CC(=O)O[C@H]1C(=O)O[C@@H]2C[C@H]3C(C)=CC(=O)[C@@H](O)[C@]3(C)[C@H]3[C@]4(O)OC[C@]32[C@@H]1[C@@H](C)[C@H]4O [HOLACANTHONE],0.162
14,C[C@@H]1N=C[C@]23C[C@@H](O)[C@H]4[C@@H](CCC5=CC(=O)C=C[C@@]54C)[C@@H]2CC[C@H]13 [HOLANAMINE],3.96
15,C/C=C1/CN(C)CC[C@]23C(=O)C[C@@H]1[C@H]1CO[C@H](O)C(=O)N(c4ccccc42)[C@@H]13 [HOLSTIINE],24.8
16,C/C=C1\CN(C)CC[C@]23C(=O)C[C@@H]1[C@H]1CO[C@H](OC)C(=O)N(c4ccccc42)[C@@H]13 [HOLSTILINE],24.9
17,COc1ccc2cc1Oc1ccc(cc1)C[C@H]1c3c(cc(OC)c(O)c3Oc3cc4c(cc3OC)CCN(C)[C@@H]4C2)CCN1C [HOMOAROMOLINE],10.5
18,O=c1c(O[C@@H]2O[C@H](CO)[C@H](O)[C@H](O)[C@H]2O)c(-c2ccc(O)c(O)c2)oc2cc(O)cc(O)c12 [HYPEROSIDE],144
19,COc1cc2c3c(c1OC)Oc1ccc(cc1)C[C@H]1c4c(cc(OC)c5c4Oc4ccc(cc4O5)C[C@H]3N(C)CC2)CCN1C [INSULARINE],6.88
20,COc1cc2c3c(c1O)Oc1ccc(cc1)C[C@@H]1c4c(cc(OC)c(O)c4Oc4ccc(cc4)C[C@H]3N(C)CC2)CCN1C [ISOCHONDODENDRINE],10.5

row,Compound,IC50 [µg/mL]
1,CN[C@H]1CC[C@@]2(C)C(=CC[C@H]3[C@@H]4CC[C@@H]5[C@H](C)N(C)C[C@@]54CC[C@@H]32)C1 [ISOCONESSIMINE],20.9
2,COc1ccc2c(c1O)-c1c(OC)c(OC)cc3c1[C@H](C2)N(C)CC3 [ISOCORYDINE],50.1
3,C/C=C1/CN2CC[C@]34c5ccccc5N(C(C)=O)[C@H]3[C@H](C=O)[C@H]1C[C@H]24 [ISORETULINAL],24.1
4,C/C=C1/CN2CC[C@]34c5ccccc5N(C(C)=O)C3[C@H](CO)[C@H]1C[C@H]24 (stereo not given in full) [ISORETULINE],21.9
5,C/C=C1/CN2CC[C@]34c5ccccc5N(C(C)=O)[C@H]3[C@H]([C@H]3OC[C@@H]5[C@H]6C[C@@H]7N(CC[C@@]78c7ccccc7N3[C@@H]58)C[C@H]6CC)[C@H]1C[C@H]24 [ISOSTRYCHNOBILINE],20.9
6,CC[C@H]1CN2CCC3c4ccc(O)c([C@@H]5CCCN5C)c4NC3[C@@H]2C[C@@H]1C[C@H]1c2[nH]c3ccccc3c2CCN1C (stereo not given in full) [ISOSTRYCHNOPENTAMINE],10.4
7,COc1ccc2cc1Oc1ccc(cc1)C[C@@H]1c3cc(c(OC)cc3CCN1C)Oc1c(OC)c(OC)cc3c1[C@H](C2)N(C)CC3 [ISOTETRANDRINE],13.8
8,COc1ccc2cc1Oc1ccc(cc1)C[C@H]1c3c(cc(OC)c4c3Oc3cc5c(cc3O4)CCN(C)[C@H]5C2)CCN1C [ISOTRILOBINE],6.22
9,C[C@H]1O[C@H](Oc2c(-c3ccc(O)cc3)oc3cc(O)cc(O)c3c2=O)[C@@H](O)[C@@H](O)[C@@H]1O [KAEMPFEROL-3-O-RHAMNOSIDE],64.7
10,C[C@H]1O[C@H](OC[C@H]2O[C@@H](Oc3c(-c4ccc(O)cc4)oc4cc(O)cc(O)c4c3=O)[C@H](O)[C@@H](O)[C@@H]2O)[C@@H](O)[C@@H](O)[C@@H]1O [KAEMPFEROL-3-O-RUTINOSIDE],72.5
11,C[C@H]1O[C@H](OC[C@H]2O[C@@H](Oc3cc(O)c4c(=O)c(O)c(-c5ccc(O)cc5)oc4c3)[C@H](O[C@@H]3O[C@H](CO)[C@@H](O)[C@H](O)[C@H]3O)[C@@H](O)[C@@H]2O)[C@@H](O)[C@@H](O)[C@@H]1O [KAEMPFEROL-7-O-RHAMNOSYL-SOPHOROSIDE],> 125
12,O=c1c(O)c(-c2ccc(O)cc2)oc2cc(O)cc(O)c12 [KAEMPFEROL],7.93
13,O=c1cc(-c2ccc(O)c(O)c2)oc2cc(O)cc(O)c12 [LUTEOLIN],17.8
14,O=C(O)/C=C/c1ccccc1O[C@@H]1O[C@H](CO)[C@@H](O)[C@H](O)[C@H]1O [MELILOTOSIDE],12.5
15,COC(=O)C1=CO[C@@H](O[C@@H]2O[C@H](CO)[C@@H](O)[C@H](O)[C@H]2O)[C@H]2[C@@H]1C=C[C@@]21C=C(C(O)c2ccc(O)c(OC)c2)C(=O)O1 (stereo not given in full) [METHOXY-GAERTNEROSIDE],2.3
16,CO[C@H]1[C@H](O)[C@@H](O)[C@@H](O)[C@H](O)[C@@H]1O [METHYLINOSITOL],16.6
17,COc1ccc(/C=C/C(=O)O[C@H]2[C@@H]3C=CO[C@@H](O[C@@H]4O[C@H](CO)[C@@H](O)[C@H](O)[C@H]4O)[C@@H]3[C@@]3(CO)O[C@@H]23)cc1O [MINECOSIDE],0.398
18,O=c1c(O)c(-c2cc(O)c(O)c(O)c2)oc2cc(O)cc(O)c12 [MYRICETIN],115
19,O=C1C[C@@H](c2ccc(O)cc2)Oc2cc(O)cc(O)c21 [NARINGENIN],92.2
20,C/C=C1/CN2CCc3c(n(C)c4ccccc34)[C@@H]2C[C@@H]1Cc1nccc2c1[nH]c1ccccc12 [NBETA-METHYL USAMBARENSINE],4.12

row,Compound,IC50 [µg/mL]
1,COc1cc2c3c(c1O)-c1c(ccc(OC)c1OC)C[C@@H]3NCC2 [NORCORYDINE],50
2,C/C=C1/CN2CC[C@]34c5ccccc5N(C(C)=O)[C@H]3[C@H](COC(C)=O)[C@H]1C[C@H]24 [O-ACETYLISORETULINE],23.2
3,COc1cc2c3cc1Oc1c(O)c(OC)cc4c1[C@@H](Cc1ccc(O)c(c1)Oc1ccc(cc1)C[C@@H]3N(C)CC2)N(C)CC4 [OBAMEGINE],18.3
4,CC[C@H]1CN2CCC3c4ccccc4NC3[C@@H]2C[C@@H]1C[C@H]1NCCc2c1[nH]c1ccccc21 (stereo not given in full) [OCHROLIFUANINE A],1.3
5,COc1cc(O)c2c(=O)c(O)c(-c3ccc(OC)c(O)c3)oc2c1 [OMBUINE],70.3
6,COc1ccc2cc1Oc1ccc(cc1)C[C@@H]1c3cc(c(OC)cc3CCN1C)Oc1c(OC)c(OC)cc3c1[C@@H](C2)N(C)CC3 [PHAEANTHINE],10.8
7,COc1cc(O)c2c(c1)C(=O)c1cc(C)cc(O)c1C2=O [PHYSCION],12.7
8,O=C1C[C@@H](c2ccccc2)Oc2cc(O)cc(O)c21 [PINOCEMBRIN],80.8
9,COc1cc(O)c2c(c1)O[C@H](c1ccccc1)CC2=O [PINOSTROBIN],184
10,CC[C@H]1CN2CCc3cc(OC)c(OC)cc3[C@@H]2C[C@@H]1CC1=NCCc2cc(O)c(OC)cc21 [PSYCHOTRINE],8.19
11,COC1=C[C@@H](C)[C@@H]2C[C@H]3OC(=O)C[C@H]4C(C)=C(OC)C(=O)[C@H]([C@@]2(C)C1=O)[C@@]34C [QUASSIN],0.5
12,C[C@H]1O[C@H](Oc2c(-c3ccc(O)c(O)c3)oc3cc(O)cc(O)c3c2=O)[C@@H](O)[C@@H](O)[C@@H]1O [QUERCETIN-3-O-RHAMNOSIDE],84.7
13,O=c1c(O)c(-c2ccc(O)c(O)c2)oc2cc(O)cc(O)c12 [QUERCETIN],114
14,C=C[C@H]1CN2CC[C@H]1C[C@@H]2[C@@H](O)c1ccnc2ccc(OC)cc12 [QUINIDINE],16.6
15,C=C[C@H]1CN2CC[C@H]1C[C@@H]2C(=O)c1ccnc2ccc(OC)cc12 [QUINIDINONE],7.4
16,C=C[C@H]1CN2CC[C@H]1C[C@H]2[C@H](O)c1ccnc2ccc(OC)cc12 [QUININE],14.8
17,C/C=C1/CN2CC[C@]34c5ccccc5N(C(C)=O)[C@H]3[C@@H](C=O)[C@@H]1C[C@H]24 [RETULINAL],25.2
18,C/C=C1\CN2CC[C@]34c5ccccc5N(C(C)=O)[C@H]3[C@@H](CO)[C@H]1C[C@H]24 [RETULINE],21.9
19,O=c1c(O[C@@H]2OC[C@@H](O)[C@H](O)[C@H]2O)c(-c2ccc(O)c(O)c2)oc2cc(O)cc(O)c12 [REYNOUTRIN],109
20,COC1=C[C@]23CCN(C)[C@H](Cc4ccc(OC)c(O)c42)C3=CC1=O [SALUTARIDINE],50
